# Values of other authors in patent US6730664B1, “Formulations for parenteral use of estramustine phosphate and sulfoalkyl ether cyclodextrins” (Pharmacia Italia S.p.A., priority 1999, dated 2004).
# Conditions: patients, slow intravenous injection or bolus, 300 mg/day
structure (smiles),measurement,value
"C[C@]12CC[C@@H]3c4ccc(OC(=O)N(CCCl)CCCl)cc4CC[C@H]3[C@@H]1CC[C@@H]2OP(=O)(O)O [estramustine phosphate, Estramustine phosphate]",side effects at the peripheral intravenous injection sites,thrombophlebitis and local irritations
